Reference: patent publication US20070134261A1, “Effectors of innate immunity” (priority 2001, published 2007)

Assays:
[1] = system: A549 human epithelial cells; assay: LPS induced IL-8 production in A549 cells (ELISA); type: cell-based; conditions: 100 ng/ml E. coli O111:B4 LPS, 24 hours
[2] = system: mouse macrophage RAW cell line; assay: Phosphorylation of MAP kinases (Western blot) in RAW cell line; type: cell-based
Experimental: (§1) The cells were seeded at 2.5×10^5−5×10^5 cells/ml and left overnight. They were washed once in media, serum starved in the morning (serum free media—4 hrs). The media was removed and replaced with PBS, then sat at 37° C. for 15 minutes and then brought to room temp for 15 minutes. Peptide was added (concentrations 0.1 μg/ml−50 μg/ml) or H2O and incubated 10 min. The PBS was very quickly removed and replaced with ice-cold radioimmunoprecipitation (RIPA) buffer with inhibitors (NaF, B-glycerophosphate, MOL, Vanadate, PMSF, Leupeptin Aprotinin). The plates were shaken on ice for 10-15 min or until the cells were lysed and the lysates collected. The procedure for THP-1 cells was slightly different; more cells (2×10^6) were used. They were serum starved overnight, and to stop the reaction 1 ml of ice-cold PBS was added then they sat on ice 5-10 min, were spun down then resuspended in RIPA. Protein concentrations were determined using a protein assay (Pierce, Rockford, Ill.). Cell lysates (20 μg of protein) were separated by SDS-PAGE and transferred to nitrocellulose filters. […] The freshly harvested cells were consistently >99% viable as assessed by their ability to exclude trypan blue. […] Protein content was analyzed and approximately 30 μg of each sample was loaded in a 12% SDS-PAGE gel. […] Phosphorylation was detected with phosphorylation-specific antibodies.

HBE cells = assay: Phosphorylation of MAP kinases (Western blot) in HBE cells; type: cell-based, human
Experimental: as §1

`CC[C@H](C)[C@H](N)C(=O)N[C@@H](CC(C)C)C(=O)N1CCC[C@H]1C(=O)N[C@@H](Cc1c[nH]c2ccccc12)C(=O)N[C@@H](CCCCN)C(=O)N[C@@H](Cc1c[nH]c2ccccc12)C(=O)N1CCC[C@H]1C(=O)N[C@@H](Cc1c[nH]c2ccccc12)C(=O)N[C@@H](Cc1c[nH]c2ccccc12)C(=O)N1CCC[C@H]1C(=O)N[C@@H](Cc1c[nH]c2ccccc12)C(=O)N[C@@H](CCCNC(=N)N)C(=O)N[C@@H](CCCNC(=N)N)C(N)=O` [SEQ ID NO: 2] was tested, and the “Inhibition of IL-8” value ([1]; SEQ ID NO: 2 0.1 μg/ml) was 6.8 ± 9.6%, the “Inhibition of IL-8” value ([1]; SEQ ID NO: 2 1 μg/ml) was 12.8 ± 24.5% and the “Inhibition of IL-8” value ([1]; SEQ ID NO: 2 10 μg/ml) was 29.0 ± 26.0%. For the same compound, the “Inhibition of IL-8” value ([1]; SEQ ID NO: 2 50 μg/ml) was 39.8 ± 1.6%, the “Inhibition of IL-8” value ([1]; SEQ ID NO: 2 100 μg/ml) was 45.0 ± 3.5% and the “phosphorylation of p38 and ERK1/2” value [2] was “dose dependent phosphorylation”. For the same compound, the “phosphorylation of p38 and ERK1/2” value (HBE cells) was “dose dependent phosphorylation”.
